Source: patent US9095126B2, “Targeting TGF-β as a therapy for Alzheimer's disease” (Yale University, priority 2008, dated 2015)

Assays:
microglia = conditions: exogenous addition of TGF-β1 to microglia (Wyss-Coray et al., 2001); cited from earlier work
[1] = tested on: p21-activated kinase 2 (PAK2); experiment: Western blot for phosphorylated PAK2 in peripheral macrophages; format: cell-based, mouse; conditions: wild-type peripheral macrophages; for PAK2 phosphorylation: 30 min, TGF-β1 5 ng/mL alone, BMP-2 50-200 ng/mL or BMP-4 12.5-50 ng/mL (FIG. 12B)
Experimental: Cortical microglia were isolated from neonatal (1-2 day-old) CD11c-DNR or wild-type C57BL/6 mice according to previously published methods (Tan et al., 1999 Science 286: 2352-2355; Town et al., 2006 J. Immunol, 176: 3804-3812), Briefly, brains were isolated under sterile conditions and cerebral cortices were incubated in tripsin-EDTA (Invitrogen-Gibco) for 15 min at 37° C. Complete RPMI 1640 medium (supplemented with 10% FCS and 1 mM penicillin-streptomycin) was then added and brains were dissociated by trituration. Subsequently, cerebral cortex material was plated in 25 cm^2 flasks (Fisher Scientific), and the media was changed every 2-3 days. When the appearance of microglia was noted (typically 14 days after plating), culture media was exchanged with RPMI 1640 medium supplemented with 5% FCS, and the microglia were isolated by shaking in an incubator-shaker at 200 rpm for 2 h at 37° C. Peripheral MΦ were isolated from adult CD11c-DNR or wild-type C57BL/6 mice according to standard immunological methods by intraperitoneally (i.p.) injecting mice with 900 μL of 3% (w/v) sterile thioglycollate solution diluted in PBS. Four days later, mice were injected i.p. with 10 mL of ice-cold PBS for peritoneal lavage. Peripheral MΦ were then plated with complete medium (DMEM supplemented with 10% FCS and 1 mM penicillin streptomycin) and allowed to rest overnight.
Microglia or peripheral MΦ from wild-type or CD11c-DNR mice were plated at 1×10^6 cells/well in 6-well tissue culture plates (BD Biosciences-Falcon) containing complete RPMI 1640 media or complete DMEM, respectively. These cells were then treated with a dose-range of recombinant TGF-β1 (R&D Systems; 1, 5, or 10 ng/mL) in the presence or absence of lipopolysachharide (LPS, 50 ng/mL) for 30 min. […] Protein concentration was determined using the Bradford method, and aliquots corresponding to 50 μg of protein were run out on 12% Nu-PAGE™ polyacrylamide gels (Invitrogen) and proteins were transferred electrophoretically to Immobilon-P polyvinylidene difluoride membranes (Millipore). […]

[2] = tested on: bone morphogenic protein-activated Smad1/5/8 signaling; experiment: Western blot for phosphorylated Smad1/5/8 (alternate bone morphogenic protein-activated signaling) in peripheral macrophages; format: cell-based, mouse; conditions: for ratio of phospho-Smad1/5/8 to phospho-Smad2/3: ALK5 inhibitor treatment alone, 0.1, 1.0 or 10.0 μM, peripheral macrophages (FIG. 9A)
Experimental: (§1) Cortical microglia were isolated from neonatal (1-2 day-old) CD11c-DNR or wild-type C57BL/6 mice according to previously published methods (Tan et al., 1999 Science 286: 2352-2355; Town et al., 2006 J. Immunol, 176: 3804-3812), Briefly, brains were isolated under sterile conditions and cerebral cortices were incubated in tripsin-EDTA (Invitrogen-Gibco) for 15 min at 37° C. Complete RPMI 1640 medium (supplemented with 10% FCS and 1 mM penicillin-streptomycin) was then added and brains were dissociated by trituration. Subsequently, cerebral cortex material was plated in 25 cm^2 flasks (Fisher Scientific), and the media was changed every 2-3 days. When the appearance of microglia was noted (typically 14 days after plating), culture media was exchanged with RPMI 1640 medium supplemented with 5% FCS, and the microglia were isolated by shaking in an incubator-shaker at 200 rpm for 2 h at 37° C. Peripheral MΦ were isolated from adult CD11c-DNR or wild-type C57BL/6 mice according to standard immunological methods by intraperitoneally (i.p.) injecting mice with 900 μL of 3% (w/v) sterile thioglycollate solution diluted in PBS. Four days later, mice were injected i.p. with 10 mL of ice-cold PBS for peritoneal lavage. Peripheral MΦ were then plated with complete medium (DMEM supplemented with 10% FCS and 1 mM penicillin streptomycin) and allowed to rest overnight. […] Microglia or peripheral MΦ from wild-type or CD11c-DNR mice were plated at 1×10^6 cells/well in 6-well tissue culture plates (BD Biosciences-Falcon) containing complete RPMI 1640 media or complete DMEM, respectively. These cells were then treated with a dose-range of recombinant TGF-β1 (R&D Systems; 1, 5, or 10 ng/mL) in the presence or absence of lipopolysachharide (LPS, 50 ng/mL) for 30 min. In a separate set of experiments, these cells were pre-treated for 1 h with ALK5 inhibitors SB-505124 or SB-431542 (Sigma-Aldrich; used at 0.1, 1.0, or 10.0 μM) and 5 ng/mL of recombinant TGF-β1 was added. For Aβ phagocytosis assay, MΦ were pulse-chased with Aβ as described elsewhere herein. Cells were rinsed in ice-cold PBS three times, and lysed ice-cold lysis buffer (containing 20 mM Tris-HCl pH 7.5, 150 mM NaCl, 1 mM Na2EDTA, 1 mM EGTA, 1% v/v Triton X-100, 2.5 mM sodium pyrophosphate, 1 mM glycerophosphate, 1 mM Na3VO4, 1 μg/ml leupeptin, and 1 mM PMSF). After lysis for 30 min on ice, cell lysates were centrifuged at 15,000×g for 30 min, and supernatants were aliquoted for Western blot analysis. Protein concentration was determined using the Bradford method, and aliquots corresponding to 50 μg of protein were run out on 12% Nu-PAGE™ polyacrylamide gels (Invitrogen) and proteins were transferred electrophoretically to Immobilon-P polyvinylidene difluoride membranes (Millipore). Membranes were blocked in blocking buffer (5% w/v nonfat dry milk in Tris-buffered saline containing 1% v/v Tween-20) for 3 h at ambient temperature and incubated overnight at 4° C. with primary polyclonal antibodies directed against total or phosphorylated SMAD2/3, SMAD1/5/8, PAK2, or ERK1/2 (Cell Signaling Technology). Membranes were then rinsed three times for 5 min each in dH2O, and incubated with anti-rabbit secondary antibody conjugated with horseradish peroxidase (diluted at 1/2000 in blocking buffer; GE Healthcare-Amersham Biosciences). After an additional three rinses for 5 min each in dH2O, the membranes were incubated for 5 min at ambient temperature with the enhanced chemiluminescence substrate (Thermo Fisher Scientific-Pierce Biotechnology), exposed to film, and developed.

[3] = tested on: TGF-β-activated Smad2/3 signaling; experiment: Western blot for phosphorylated Smad2/3 (canonical TGF-β-activated signaling) in primary macrophages/microglia; format: cell-based, mouse; conditions: for phosphorylated Smad2/3 after TGF-β1 challenge: TGF-β1 1, 5 or 10 ng/ml with or without LPS 50 ng/ml, 30 min (FIG. 7A); for TGF-β1-induced Smad2/3 phosphorylation: peripheral macrophages pre-treated 1 h with 0.1, 1.0 or 10.0 μM ALK5 inhibitor, then TGF-β1 5 ng/mL for 30 min (FIG. 9A)
Experimental: as §1

peripheral macrophages = experiment: Aβ phagocytosis assay, Aβ488 pulse-chase, confocal microscopy; format: cell-based, mouse; conditions: primary macrophages with ALK5 inhibitor 1 h, pulsed 4 h with pre-aggregated Aβ488, chased 15 min (FIG. 9B-9C)
Experimental: FIG. 9, comprising FIGS. 9A-9F, is a series of images depicting Activin-like kinase (ALK) inhibition increases the ratio of phospho-SMAD1/5/8 to phospho-SMAD2/3 and promotes macrophage Aβ phagocytosis. FIG. 9A depicts peripheral MΦ pre-treated with a dose range (0.1, 1.0, or 10.0 μM) of ALK5 inhibitors (SB-505124 or SB-431542) for 1 h and then cultured in the presence or absence of recombinant TGF-β1 (5 ng/mL) for 30 min as indicated. Upper panels show Western blots for phospho (p) or total forms of SMAD2/3 or SMAD1/5/8. Lower panel is a histogram showing the ratio of pSMAD1/5/8 to pSMAD2/3. […] FIG. 9C depicts quantification of confocal images (n=3 randomly selected 10× magnification fields per group, group means±s.d.), and Aβ488-labeled area is shown in the upper graph, and numbers of Aβ488 phagocytic cells/field are shown in the lower graph. FIGS. 9D-9F depict gender-dependent reductions in Aβ levels in Tg2576+ animals and anti-inflammatory responses in brains of crossed mice. Biochemical analyses of (FIG. 9D) detergent-soluble and (FIG. 9E) guanidine HCl-soluble Aβ1-42 and Aβ1-42/Aβ1-40 in male vs. female Tg2576 positive mice (irrespective of CD11c-DNR transgene status). FIG. 9F depicts Q-PCR results for Tnfa (left) or Il10 (right) expression (relative to Hprt1) shown for four groups of mice, and statistical comparisons vs. wild-type mice. […]

[4] = peripherally isolated macrophages, exogenous TGF-β1 5 ng/mL, 30 min (FIG. 9A)
[5] = wild-type peripheral macrophages, 30 min, TGF-β1 5 ng/mL alone, BMP-2 50-200 ng/mL or BMP-4 12.5-50 ng/mL (FIG. 12B)

| Molecule | PAK2 phosphorylation [1] | Smad1/5/8 phosphorylation [2, 5] | Smad2/3 phosphorylation [3, 5] | macrophage Aβ phagocytosis (Aβ488-labeled area, Aβ488 phagocytic cells/field) (peripheral macrophages) | ratio of phospho-Smad1/5/8 to phospho-Smad2/3 [2] | TGF-β1-induced Smad2/3 phosphorylation [3] | other results |
| --- | --- | --- | --- | --- | --- | --- | --- |
| TGF-β1: recombinant TGF-β1 (R&D Systems), cytokine | little impact | little impact | promoted Smad2/3 phosphorylation | – | – | – | Aβ uptake by microglia (microglia): promotes increased Aβ uptake; BMP-induced PAK2 phosphorylation ([1]; TGF-β1 5 ng/mL added to the BMP treatment conditions): inhibited; Smad1/5/8 phosphorylation ([2]; CD11c-DNR macrophages, exogenous TGF-β1 and LPS together (FIG. 7B)): further augmented; Smad1/5/8 phosphorylation [2, 4]: increased phosphorylation; phosphorylated Smad2/3 after TGF-β1 challenge ([3]; CD11c-DNR macrophages): nonresponsive; phosphorylated Smad2/3 after TGF-β1 challenge ([3]; CD11c-DNR microglia): responded to challenge; Smad2/3 phosphorylation ([3]; TGF-β1 5 ng/mL added to the BMP treatment conditions, wild-type peripheral macrophages): further promoted; Smad2/3 phosphorylation [3, 4]: increased phosphorylation; phosphorylated Smad2/3 after TGF-β1 challenge ([3]; wild-type microglia and macrophages): showed phosphorylated Smad2/3 |
| Cc1cccc(-c2[nH]c(C(C)(C)C)nc2-c2ccc3c(c2)OCO3)n1 [SB-505124, reference compound] | – | – | – | increased Aβ phagocytosis in a dose-dependent fashion | increased | blocked by ALK5 inhibition in a dose-dependent manner | – |
| NC(=O)c1ccc(-c2nc(-c3ccc4c(c3)OCO4)c(-c3ccccn3)[nH]2)cc1 [SB-431542, reference compound] | – | – | – | increased Aβ phagocytosis in a dose-dependent fashion | increased | blocked by ALK5 inhibition in a dose-dependent manner | – |
| BMP-4: recombinant BMP-4, bone morphogenic protein (protein, UniProt P12644 293-408, looked up) Bone morphogenetic protein 4: SPKHHSQRARKKNKNCRRHSLYVDFSDVGWNDWIVAPPGYQAFYCHGDCPFPLADHLNSTNHAIVQTLVNSVNSSIPKACCVPTELSAISMLYLDEYDKVVLKNYQEMVVEGCGCR | promoted | promoted | did not impact | – | – | – | ratio of pSmad1/5/8 to pSmad2/3 ([2]; BMP monotreatment compared with TGF-β1 treatment alone, wild-type peripheral macrophages): increased |
